Usually inhibition stands for the drop in the measured response relative to a control, in per cent. As a reminder, the IC50 is the concentration needed to halve the response being measured.

SMILES strings stand for the structures. Active and inactive are the calls of the source. The calls are words filed in the database; no cut-off is given here.

The results in this text go back to ChEMBL document CHEMBL3259531, “Discovery of novel type II c-Met inhibitors based on BMS-777607” (Eur J Med Chem, 2014).

The subject of assay [1] is BaF3. Nature of the assay: Cytotoxicity against mouse BAF3 cells expressing TPR-Met assessed as growth inhibition at 10 uM after 72 hrs relative to control. The class given is functional. The note with it: BaF3, 72 h, read-out: GI.
Assay [2] concerns the target T1, Hepatocyte growth factor receptor (Homo sapiens, UniProt P08581). As to the kind of experiment: Inhibition of c-Met (unknown origin) using poly Glu:Tyr (4:1) as substrate after 60 mins by ELISA. A general note: ELISA stands for enzyme-linked immunosorbent assay.
The target of assay [3] is T1, Hepatocyte growth factor receptor. As to the kind of experiment: Inhibition of c-Met (unknown origin) using poly Glu:Tyr (4:1) as substrate at 10 uM after 60 mins by ELISA relative to control.
The target is the same in assay [4].
The test system of assay [5] is BaF3. As to the kind of experiment: Cytotoxicity against mouse BAF3 cells expressing TPR-Met assessed as growth inhibition at 1 uM after 72 hrs. The class given is functional, cell-based.
A short description of assay [6]: Cytotoxicity against human MKN45 cells assessed as growth inhibition after 72 hrs. The conditions noted are these: MKN-45, 72 h.
Assay [7] deals with BaF3. Nature of the assay: Cytotoxicity against mouse BAF3 cells expressing TPR-Met assessed as growth inhibition after 72 hrs. The conditions noted are these: BaF3, 72 h.
Assay [8] concerns the target T1, Hepatocyte growth factor receptor. The source holds these as a separate data set.
For assay [9] the target is unchanged. Nature of the assay: Inhibition of c-Met (unknown origin).

In the case of `CCOc1ccn(-c2ccc(F)cc2)c(=O)c1C(=O)Nc1ccc(Oc2ncnc3[nH]ccc23)c(F)c1`, the inhibition of growth at 10 µM with BaF3 [1] is over 80%.
Regarding `Nc1nccc(Oc2ccc(N3CCCC(C(=O)Nc4ccc(F)cc4)S3(=O)=O)cc2F)c1Cl` (stereo not drawn), in assay [2], the inhibition result is “inactive”.
Consider `Nc1nccc(Oc2ccc(N3CCCC(C(=O)Nc4ccccc4)S3(=O)=O)cc2F)c1Cl` (stereo not drawn), for which the inhibition entry in [2] is “inactive”.
`COc1cc2nccc(Oc3ccc(NC(=O)c4cccn(-c5ccc(F)cc5)c4=O)cc3F)c2cc1OC`: the inhibition in assay [3] stood at 29.7%.
Turning to `Cc1ccc(NC(=O)C2CCCN(c3ccc(Oc4ccnc(N)c4Cl)c(F)c3)S2(=O)=O)cc1` (stereo not drawn), the half-inhibitory concentration (IC50) entry in assay [4] is recorded as “Not Active”.
On to `COc1cc2nccc(Oc3ccc(NC(=O)c4c(I)ccn(-c5ccc(F)cc5)c4=O)cc3F)c2cc1OC`, for which the “growth inhibition (GI)” value with BaF3 [5] was “Active”. The inhibition of growth at 10 µM in the assay on BaF3 [1] was over 80%.
`CCOc1ccn(-c2ccc(F)cc2)c(=O)c1C(=O)Nc1ccc(Oc2ccnc3cc(OC)c(OC)cc23)c(F)c1`: the IC50 in assay [6] stood at 39.7 nM; in the assay with BaF3 [7], 19.5 nM. Also, the inhibition of growth at 10 µM in the assay with BaF3 [1] is over 80%.
As for `COc1cc2nccc(Oc3ccc(NC(=O)c4c(OC)ccn(-c5ccc(F)cc5)c4=O)cc3F)c2cc1OC`, the concentration for half-maximal inhibition (IC50) in assay [6] was found to be 57.7 nM; in the assay on BaF3 [7], 36.3 nM. In the assay with BaF3 [1], the inhibition of growth at 10 µM was over 80%.
For `Nc1nccc(Oc2ccc(NC(=O)c3cccn(-c4ccc(F)cc4)c3=O)cc2F)n1`, the concentration for half-maximal inhibition (IC50) in assay [8] was 39 nM.
For `O=C(Nc1ccc(Oc2ncnc3[nH]ccc23)c(F)c1)c1cccn(-c2ccc(F)cc2)c1=O`, in the assay on BaF3 [1], the inhibition of growth at 10 µM was over 80%.
As for `CCOc1ccn(-c2ccc(F)cc2)c(=O)c1C(=O)Nc1ccc(Oc2ccnc(N)c2Cl)c(F)c1` [BMS-777607], the IC50 in assay [6] came out at 286 nM; in the assay on BaF3 [7], 188 nM.
Take `CCn1cnc(-c2cc3nccc(Oc4ccc(NC(=S)N5CCN(c6ccc(F)cc6)C5=O)cc4F)c3s2)c1`: the IC50 in assay [9] came out at 27 nM.
